How the values were obtained:
[1] = test system: PC12 cell line expressing EGFP-tagged HD exon 1 with Q74; assay: Turnover of Q74 protein and aggregates in stable doxycycline-inducible PC12 cells after switching expression off; format: cell-based, rat
Method: (§1) African green monkey kidney cells (COS-7) were grown in Dulbecco's Modified Eagle Medium (DMEM, Sigma) supplemented with 10% Fetal Bovine Serum (FBS), 100 U/ml Penicillin/Streptomycin, 2 mM L-Glutamine and 1 mM Sodium Pyruvate at 37° C., 5% Carbon dioxide. The cells were grown on coverslips in six-well plates for immunofluorescence analysis, or were directly grown in six-well plates to 60-80% confluency for 24 hours for western blot analysis. Transfection was done using LipofectAMINE reagent (Invitrogen) using the manufacturer's protocol. The transfection mixture was replaced by normal culture medium after 5 hours incubation at 37° C. and the transfected cells were analysed by immunofluorescence or immunoblot 48 hours after transfection. The cells were left untreated or treated with 10 mM 3-methyl adenine (3-MA, Sigma), 0.5 mM N^6, N^6, Dimethyl adenosine (DMA, Sigma), 0.2 μg/ml Rapamycin (Sigma), 200 nM Bafilomycin A1 (BafA1, Sigma), 10 μM Lactacystin (Sigma) or 10 μM epoxomicin (Affinity research products ltd.) for 15 hours before fixation for immunofluorescence or processing for western blots. DMA, BafA1, epoxomicin and rapamycin were dissolved in DMSO and 3-MA and lactacystin were in water. Equal amounts of water or DMSO were added to the untreated controls, where relevant. The cells on coverslips were rinsed with 1×PBS, fixed with 4% paraformaldehyde in 1×PBS for 20 min and mounted in antifadent supplemented with 4′,6-diamidino-2-phenylindole (DAPI, 3 μg/ml, Sigma) to allow visualisation of nuclear morphology. The PC12 stable cells were maintained at 75 μg/ml hygromycin in standard medium consisting of high glucose DMEM (Sigma) with 100 U/ml penicillin/streptomycin, 2 mM L-glutamine (Invitrogen), 10% heat-inactivated horse serum (Invitrogen), 5% Tet-approved fetal bovine serum (FBS) (Clontech) and 100 μg/ml G418 (Invitrogen) at 37° C., 10% CO2. The cells were seeded at 1-2×10^5 per well in 6-well plates and were induced with 1 μg/ml doxycycline (Sigma) for 8 hours. The expression of transgenes was switched off by removing doxycycline from the medium. Cells were either left untreated or treated with 3-MA, BafA1, epoxomicin, lactacystin, rapamycin, 10 μg/ml cycloheximide (Sigma) or cycloheximide+rapamycin at the concentrations specified above for 24, 48 or 72 hours and the medium with the inhibitors/activator changed every 24 hours. The cells were then scraped off from the wells into 1.5 ml eppendorf tubes, pelleted at 8000 rpm and washed twice with 1×PBS. They were either fixed with 4% paraformaldehyde for 20 minutes and mounted in DAPI over coverslips on glass slides or processed for western blot analysis. CCI-779 was supplied by Wyeth Pharmaceuticals (Philadelphia). For tissue culture experiments, a stock solution of 1M in ethanol was prepared the day of experiment and was diluted in the appropriate medium
The pellets for westerns from COS-7 or PC12 cells were lysed on ice in Laemmli buffer (62.5 mM Tris-HCl pH6.8, 5% β-mercaptoethanol, 10% glycerol, and 0.01% bromophenol blue) for 30 min in the presence of protease inhibitors (Roche Diagnostics). The lysates were subjected to SDS-PAGE (10%) electrophoresis and proteins transferred onto nitrocellulose membrane (Amersham Pharmacia Biotech). The primary antibodies used include mouse monoclonal anti-GFP antibody (8362-1, Clontech) at 1:2000, rabbit monoclonal anti-actin antibody (A2066, Sigma) at 1:3000, mouse monoclonal anti-tubulin antibody (Clone DM 1A, Sigma) at 1:1000 and mouse monoclonal anti-HA antibody (Covance) at 1:1000. Blots were probed with Horse Radish Peroxidase (HRP) conjugated anti-mouse or anti-rabbit IgG (Bio Rad) at 1:2000. Bands were visualised using the ECL detection reagent (Amersham). […]

[2] = test system: COS-7 cells expressing an exon 1 fragment of the HD gene with 74 glutamines (Q74); assay: Aggregate formation and abnormal cell nuclei in transiently transfected COS-7 cells expressing Q74; format: cell-based, African green monkey; conditions: 48 hours after transfection
Description: (§2) Mammalian expression vectors comprising EGFP (pEGFP-C1, Clontech) fused at its C-terminus with a Huntington's Disease gene exon 1 fragment with 74 polyglutamine repeats (Q74) or a polyalanine stretch of 19 repeats (A19) were used (Rankin, J. et al (2000) Biochem. J., 348, 15-19; Narain, Y. et al (1999) J. Med. Genet., 36, 739-746.). A Haemagglutinin-tagged Huntington's Disease gene exon 1 fragment with 74 polyglutamine repeats in pHM6 vector (Q74-HA) was also used. The PC12 stable lines expressing exon 1 of Huntington gene were as described in Wyttenbach A. et al., (2001) Hum. Mol. Genet. 10 1829-45.
as §1
(§3) The pellets for westerns from COS-7 or PC12 cells were lysed on ice in Laemmli buffer (62.5 mM Tris-HCl pH6.8, 5% β-mercaptoethanol, 10% glycerol, and 0.01% bromophenol blue) for 30 min in the presence of protease inhibitors (Roche Diagnostics). The lysates were subjected to SDS-PAGE (10%) electrophoresis and proteins transferred onto nitrocellulose membrane (Amersham Pharmacia Biotech). […]

[3] = test system: human wild-type, A30P and A53T α-synuclein; assay: α-Synuclein degradation in inducible PC12 cell lines (western blot), all forms; format: cell-based
Description: Human α-synuclein with a HA tag at the N-terminus and a 6His tag at the C-terminus was amplified from pHM6α-synuclein constructs (Furlong, R. A. et a; 1 (2000) Biochem. J. 346, 577581) and inserted into pTRE2 hyg vector (Clontech) using Nhe I/Sal I sites. Constructs were confirmed by sequencing before use. The pTRE2 hygα-synuclein construct and pTettTS (Clontech) were cotransfected into PC12 TetOn cells (Clontech), using Lipofectamine (Invitrogen) and Plus Reagent (Invitrogen). Single colonies were isolated using cloning cylinders (Sigma) and cells were grown and tested for α-synuclein expression upon induction. Cell lines were subjected to a further round of purification from single colonies to ensure that lines were pure.
PC12 cells were grown in Dulbecco's modified eagle's medium (DMEM, Sigma) supplemented with 10% horse serum (Sigma), 5% fetal bovine serum (Sigma), 100 U/ml penicillin/streptomycin, 2 mM L-glutamine, […] G418 (Invitrogen) and […] hygromycin B (Calbiochem) at 37° C., 10% CO2. To induce differentiation, cells were grown in media containing 1% horse serum and 100 ng/ml nerve growth factor (2.5S, Upstate Biotechnology) and incubated for about 5 days. Cells were induced to express synuclein with […] doxycycline (Sigma).
Cells were induced for 24 hours and then washed twice with media to remove doxycycline. Then cells were incubated in […] media containing either 10 mM 3-methyladenine (3MA, Sigma), 200 nM bafilomycin A1 (Sigma), […] rapamycin (Sigma), […] lactacystin (Sigma), […] epoxomicin (Affinity Research Products Ltd) or carrier controls (water or DMSO (Sigma)). 3MA and lactacystin were made up in water and rapamycin, epoxomicin and bafilomycin were dissolved in DMSO.
After 24 hours the media was replaced with fresh media plus drug and after a further 24 hours cell pellets were collected and stored at −80° C. until required.
Cell pellets were collected and stored at −80° C. until needed. Cells were lysed on ice in lysis buffer: 1% TritonX100, 20 mM TRIS pH7.5, 137 mM NaCl, 1 mM EGTA, 10% glycerol, 1.5 mM MgCl2 and protease inhibitor cocktail (Complete, Roche).
Samples were then mixed with loading buffer: 62.5 mM TRIS pH 6.8, 2% SDS, 10% glycerol, 0.05% bromophenol blue, 100 mM dithiothreitol and 700 mM β-mercaptoethanol and boiled before loading onto 14% denaturing polyacrylamide gels.
Each lane was loaded with protein from a similar number of cells, based on cell counting at the time of seeding. Proteins were transferred onto Hybond ECL nitrocellulose membrane (Amersham). α-Synuclein was detected with an antiHA monoclonal antibody (Covance) at 1:1000 dilution with 4-18 hours incubation. HRP conjugated antimouse antibody (Amersham) at 1:2000 dilution was then added to blots and antibody was detected using ECL blotting reagents (Amersham) and Hyperfilm ECL (Amersham). Blots were stripped and then reprobed for α-tubulin (Sigma) at 1:1000 dilution.
PC12 cell lines as described above (i.e. mitotic and neuronally differentiated wild-type, A53T and A30P PC12 lines) were induced for 24 hours, then doxycycline was removed and the drugs were added for 48 hours. The trends we observed were similar in cells treated with drugs for 24 and 72 hours.

[4] = test system: COS-7 cells expressing EGFP fused to 19 alanines (A19); assay: Aggregate formation and abnormal cell nuclei in transiently transfected COS-7 cells expressing A19; format: cell-based, African green monkey; conditions: immunofluorescence; 48 hours after transfection; drug 15 hours
Description: as §2, §1, §3

Structure (SMILES): C[C@@H]1C[C@@H]([C@H](O)CC2CC(=O)NC(=O)C2)C(=O)[C@@H](C)C1 [cycloheximide]
- cell fluorescence (EGFP-Q74 clearance) ([1]; 8 h ON then 72 h OFF with drug, 0.2 μg/ml rapamycin, 10 μg/ml cycloheximide): increased
- numbers of aggregate containing cells / visible aggregates ([1]; 8 h ON then 72 h OFF with drug, vs time-matched control): increased

Structure (SMILES): CC(=O)N[C@@H](CSC(=O)[C@]1([C@@H](O)C(C)C)NC(=O)[C@H](C)[C@@H]1O)C(=O)O [lactacystin]
- proportions of Q74-expressing cells with aggregates ([2]; drug for 15 hours before fixing: 10 mM 3-MA, 0.5 mM DMA, 200 nM BafA1, 0.2 μg/ml rapamycin, 10 μM epoxomicin, 10 μM lactacystin, vs untreated): increases
- number of aggregate-containing cells ([1]; 8 h ON then 48 h OFF with 10 μM epoxomicin or 10 μM lactacystin, vs control): increased Q74 aggregation
- cell death or overt aggregate formation [3]: did not cause increased cell death or overt aggregate formation
- α-synuclein levels ([3]; induced 24 hours, doxycycline removed, drug 48 hours, cycling and differentiated cells, 0.2 mg/ml rapamycin, 10 mM lactacystin, 10 mM epoxomicin [sic]): increase

Structure (SMILES): CN(C)c1ncnc2c1ncn2[C@@H]1O[C@H](CO)[C@@H](O)[C@H]1O [DMA, N^6,N^6-dimethyladenosine]
- appearance (size, number) of Q74 aggregates in cells with aggregates ([2]; immunofluorescence, drug 15 hours): Identical aggregate phenotypes
- appearance (size, number) of A19 aggregates in cells with aggregates [4]: Identical aggregate phenotypes
